The values that follow come from patent publication US20260083750A1, “SMALL MOLECULE INHIBITORS OF KRAS PROTEINS” (MERCK SHARP & DOHME LLC, priority 2022, published 2026).

For test [1], the target named is T1, KRAS-G12C (C51S/C80L/C118S) (Homo sapiens, UniProt P01116, C118S/C51S/C80L/G12C).
T1 construct: N-terminal biotin-acceptor peptide […]
The test can be described thus: SOS-catalyzed nucleotide exchange assay (Procedure A, TR-FRET). The format is biochemical. To be noted: 60 min preincubation, SOS + GTP, read-out: KRAS G12C GNE IC50. The text has this:
(§1) Procedure for SOS-Catalyzed Nucleotide Exchange Assay for KRAS-G12C/D/V, G13D, HRAS, and NRAS (Procedure A)
(§2) Recombinant KRAS-G12C protein used in this assay has an additional triple mutation (C51S/C80L/C118S), whereas KRAS-G12D/V, G13D, HRAS and NRAS are in context of their WT protein sequence background. Specifically, the SOS-catalyzed nucleotide exchange assay utilizes a preformed TR-FRET complex containing a specific biotinylated RAS protein (KRAS-G12C/V/D, G13D, HRAS, NRAS; described above) with Bodipy-GDP, and Terbium-streptavidin. Compounds are preincubated with this complex for 60 minutes. Subsequently, recombinant human SOS protein and unlabeled GTP are added to initiate the exchange reaction. Small molecule inhibitors stabilize the Bodipy-GDP complex whereas the untreated protein rapidly exchanges Bodipy-GDP for unlabeled GTP resulting in reduced TR-FRET signal.
(§3) To assemble the preformed TR-FRET complexes, each biotinylated RAS protein is diluted to 2 μM in an EDTA Buffer (20 mM HEPES pH 7.5, 50 mM sodium chloride, 10 mM EDTA, and 0.01% Tween) and incubated at room temperature for one hour. This mixture is then further diluted to 90 nM in an Assay Buffer (20 mM HEPES pH 7.5, 150 mM sodium chloride, 10 mM magnesium chloride, and 0.005% Tween) containing 15 nM of Terbium-Streptavidin (Invitrogen, catalog #PV3577) and 900 nM of Bodipy-GDP (Invitrogen, catalog #G22360) and incubated at room temperature for six hours. It should be noted that this preformed TR-FRET complex for each of the RAS protein were made ahead of time, aliquoted and stored at −80° C. until the day of the experiment.
(§4) Each test compound (10 mM stock in DMSO) is diluted in DMSO to make a final-10-point, 3-fold dilution and is acoustically dispensed into a 384-well assay plate (Corning, catalog #3820) using an Echo 550 (Labcyte). Each well of the assay plate receives 3 μL of a specific 3× RAS preformed TR-FRET complex and 3 μL of Assay Buffer and is incubated at room temperature for 60 minutes (preincubation time). Each well then receives 3 μL of 3× recombinant human SOS protein and GTP (Sigma, G8877) in Assay Buffer and is incubated at room temperature for 30 minutes (G13D), 60 minutes (G12C/D, H/NRAS) or 90 minutes for G12V. The final reaction in each well of […] consists of 3 mM GTP, specific Ras and SOS proteins in the following concentrations: KRAS-G12C/SOS=3 nM/40 nM, KRAS-G12D/SOS=1 nM/40 nM, KRAS-G12V/SOS=1.25 nM/160 nM, KRAS-G13D/SOS=1.25 nM/0 nM, HRAS & NRAS=1.25 nM/40 nM.
(§5) The time-resolved fluorescence resonance energy transfer (TR-FRET) signal is measured on an Envision (PerkinElmer) plate reader: Excitation filter=340 nm; emission1=495 nm; emission2=520 nm; dichroic mirror=D400/D505; delay time=[…]. The signal of each well is determined as the ratio of the emission at 520 nm to that at 495 nm. […] The apparent effect as a function of compound concentration is fit to a four-parameter logistic equation.
A general note: In TR-FRET formats the signal depends on donor and acceptor labels being close together.

Test [2] concerns the target T2, KRAS-G13D (Homo sapiens, UniProt P01116, G13D).
T2 construct: N-terminal biotin-acceptor peptide […]
The test is described as above. The format is biochemical. The settings on record: 60 min preincubation, GTP, read-out: KRAS G13D GNE IC50.
From the text: as §1, §2, §3, §4, §5

The target in test [3] is T3, KRAS-G12V (Homo sapiens, UniProt P01116, G12V).
T3 construct: N-terminal biotin-acceptor peptide […]
T3 sequence (P01116 with tags, fused parts or gaps isoform P01116-2 G12V): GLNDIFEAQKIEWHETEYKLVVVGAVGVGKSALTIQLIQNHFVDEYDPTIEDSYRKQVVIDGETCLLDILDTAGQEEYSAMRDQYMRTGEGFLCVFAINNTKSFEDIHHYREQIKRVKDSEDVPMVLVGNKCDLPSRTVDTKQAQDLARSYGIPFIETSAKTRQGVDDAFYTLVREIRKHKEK
Described as above. The format is biochemical. The settings on record: 60 min preincubation, SOS + GTP, read-out: KRAS G12V GNE IC50.
From the text: as §1, §2, §3, §4, §5

For test [4], the target named is HRAS (Homo sapiens, UniProt P01112). The test is described as above. The format is biochemical. To be noted: 60 min preincubation, SOS + GTP, read-out: HRAS GNE IC50.
HRAS, sequence (P01112 with tags, fused parts or gaps): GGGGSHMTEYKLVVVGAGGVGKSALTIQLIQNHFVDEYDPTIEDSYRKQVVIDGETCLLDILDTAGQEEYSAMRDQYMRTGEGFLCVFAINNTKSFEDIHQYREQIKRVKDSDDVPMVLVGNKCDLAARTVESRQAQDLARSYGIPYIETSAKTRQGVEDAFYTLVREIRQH
From the text: as §1, §2, §3, §4
(§6) The time-resolved fluorescence resonance energy transfer (TR-FRET) signal is measured on an Envision (PerkinElmer) plate reader: Excitation filter=340 nm; emission1=495 nm; emission2=520 nm; dichroic mirror=D400/D505; delay time=[…]. The signal of each well is determined as the ratio of the emission at 520 nm to that at 495 nm. Percent effect of each well is determined after normalization to control wells containing DMSO (no effect) or a saturating concentration of inhibitor (max effect). The apparent effect as a function of compound concentration is fit to a four-parameter logistic equation.

In test [5] the target is NRAS (Homo sapiens, UniProt P01111). The test is described as above. Format: biochemical. The settings on record: 60 min preincubation, SOS + GTP, read-out: NRAS GNE IC50.
NRAS, sequence (P01111 with tags, fused parts or gaps): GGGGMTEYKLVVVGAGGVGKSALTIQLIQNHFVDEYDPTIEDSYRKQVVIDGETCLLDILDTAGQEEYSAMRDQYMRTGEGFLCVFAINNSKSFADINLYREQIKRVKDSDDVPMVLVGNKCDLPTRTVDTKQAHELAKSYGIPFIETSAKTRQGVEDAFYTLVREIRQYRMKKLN
From the text: as §1, §2, §3, §4, §6

Test [6] has as its target T4, KRAS-G12D (Homo sapiens, UniProt P01116, G12D).
T4 construct: N-terminal biotin-acceptor peptide […]
The description is as above. The format is biochemical. The settings on record: 60 min preincubation, SOS + GTP, read-out: KRAS G12D GNE IC50.
From the text: as §1, §2, §3, §4, §5

The test system of test [7] is PANC08.13 cells (homozygous KRAS-G12D activating mutation). Put plainly: Cellular phospho-ERK assay in G12D cell line. The format is cell-based. To be noted: Homo sapiens, PANC-08-13, 2 hours compound incubation, ratio of p-ERK vs. total ERK, read-out: PANC 0813 pERK IC50. The protocol:
Procedure for Cellular Phospho-ERK Assay in G12D and G12V Cell Lines
PANC08.13 cells (ATCC® CRL-2551™), containing homozygous KRAS-G12D activating mutation, were cultured in growth medium made of RPMI1640-GlutaMAX™—I (ThermoFisher Scientific 61870) containing 15% heat inactivated fetal bovine serum (ThermoFisher Scientific 10091148)). SW620 cells (ATCC® […]), containing homozygous KRAS-G12V activating mutation, were cultured in growth medium that contains RPMI 1640-GlutaMAX™—I (ThermoFisher Scientific 61870) containing 10% heat inactivated fetal bovine serum (ThermoFisher Scientific 10091148).
Cells for the assay were harvested in growth medium after TrypLE (ThermoFisher scientific 12604021) digestion and were seeded in a 384-well collagen coated cell culture plate (Corning 356702) at a density of 10,000-15,000 cells/20 uL/well, and incubated at 37° C., 5% CO2 overnight. The compound (with 10 mM stock concentration) dose-response titrations were prepared [30 μM final ERK detection assay concentration and 1:3 dilutions, 10-point dose response] and appropriate amounts (270 nL) of test compounds were dispensed in a 384-well intermediate plate using an Echo 550 liquid handler. 30 uL/well of RPMI medium 1640-GlutaMAX™—I was added to the intermediate plate and the contents of the intermediate plate (10 uL/well) were then transferred to the 384-well collagen coated cell culture plate, which was incubated at 37° C., 5% CO2 for 2 hours. After removal of medium from the collagen coated cell culture plate, cells were lysed in lysis buffer from Alpha SureFire® Ultra™ Multiplex p-ERK and total ERK assay kit (PerkinElmer MPSU-PTERK) containing Halt™ Protease and Phosphatase inhibitor cocktail (ThermoFisher Scientific 78446) at room temperature with constant shaking at 300 rpm for 30 minutes. The cell lysates were then transferred to an OptiPlate-384 plate (PerkinElmer 6005620), and the phosphorylation of ERK (p-ERK) and total ERK levels were detected by Alpha SureFire® Ultra™ Multiplex p-EEK kit and total ERK assay kit (PerkinElmer MPSU-PTERK) following the manufacturer's protocol. Assay plates were read on a EnVision Multimode Plate Reader (PerkinElmer), and the ratio of p-ERK vs. total ERK in each well was used as the final readout. Dose response curves were analyzed using a 4-parameter logistic model to calculate IC50 values using Spotfire software.

T4 sequence (P01116 with tags, fused parts or gaps isoform P01116-2 G12D): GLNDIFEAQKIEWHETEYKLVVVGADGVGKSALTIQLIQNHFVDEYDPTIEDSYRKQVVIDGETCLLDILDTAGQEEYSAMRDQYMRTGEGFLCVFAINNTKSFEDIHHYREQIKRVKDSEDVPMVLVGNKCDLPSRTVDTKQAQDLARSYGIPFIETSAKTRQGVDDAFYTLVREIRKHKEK
T1 sequence (P01116 with tags, fused parts or gaps isoform P01116-2 G12C/C51S/C80L/C118S): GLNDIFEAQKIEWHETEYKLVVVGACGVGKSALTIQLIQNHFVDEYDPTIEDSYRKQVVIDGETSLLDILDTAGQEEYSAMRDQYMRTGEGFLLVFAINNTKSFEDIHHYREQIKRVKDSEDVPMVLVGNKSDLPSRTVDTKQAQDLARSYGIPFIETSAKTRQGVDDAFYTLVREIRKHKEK
T2 sequence (P01116 with tags, fused parts or gaps isoform P01116-2 G13D): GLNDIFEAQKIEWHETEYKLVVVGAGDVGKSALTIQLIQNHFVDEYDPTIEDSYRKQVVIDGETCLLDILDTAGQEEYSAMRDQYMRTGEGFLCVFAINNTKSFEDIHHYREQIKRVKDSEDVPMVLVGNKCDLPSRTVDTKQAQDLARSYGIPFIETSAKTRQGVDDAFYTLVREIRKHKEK

One may read the IC50 as the concentration that inhibits the measured activity by half. Consider `N#Cc1c(N)sc2c(F)ccc(-c3c(Cl)cc4c(N5CCCOCC5)nc(OC[C@]5(CO)CC5(F)F)nc4c3F)c12` [Ex. 32, 2-amino-4-(6-chloro-2-(((R)-2,2-difluoro-1-(hydroxymethyl)cyclopropyl)methoxy)-8-fluoro-4-(1,4-oxazepan-4-yl)quinazolin-7-yl)-7-fluorobenzo[b]thiophene-3-carbonitrile], for which the IC50 in test [1] is 885 nM; in test [2], 798 nM; in test [3], 3440 nM; in test [4] it was more than 11100 nM; in test [5], more than 11100 nM.
In the case of `N#Cc1c(N)sc2c(F)ccc(-c3c(Cl)cc4c(N5CCCOCC5)nc(OC[C@]5(CN6CCOCC6)CC5(F)F)nc4c3F)c12` [compound 31, 2-amino-4-(6-chloro-2-(((R)-2,2-difluoro-1-(morpholinomethyl)cy-clopropyl)methoxy)-8-fluoro-4-(1,4-oxazepan-4-yl)quinazolin-7-yl)-7-fluorobenzo[b]thiophene-3-carbonitrile], the concentration for half-maximal inhibition (IC50) is 2540 nM in test [6]; 1180 nM in test [1]; 748 nM in test [2]; 152 nM in test [3]; more than 11100 nM in test [4]; more than 11100 nM in test [5].
In the case of `Cc1cc(N)nc(-c2c(F)cc3c(N4CC[C@@H]5[C@@H](C#N)[C@@H]5CC4)nc(OC[C@@]45CCCN4C[C@H](F)C5)nc3c2F)c1C(F)(F)F` [Ex. 45, (1R,7S,8S)-4-(7-(6-amino-4-methyl-3-(trifluoromethyl)pyridin-2-yl)-6,8-difluoro-2-(((2R,7aS)-2-fluorotetrahydro-1H-pyrrolizin-7a(5H)-yl)methoxy)quinazolin-4-yl)-4-azabicyclo[5.1.0]octane-8-carbonitrile], the IC50 in test [6] is 4470 nM; in test [1], 1750 nM; in test [2], not below 11100 nM; in test [3], 1490 nM; in test [4], more than 11100 nM; in test [5], more than 11100 nM.
Turning to `CC1(NC[C@@]2(COc3nc(N4CCCOCC4)c4cc(Cl)c(-c5ccc(F)c6sc(N)c(C#N)c56)c(F)c4n3)CC2(F)F)CC1` [compound 27, 2-amino-4-(6-chloro-2-(((R)-2,2-difluoro-1-(((1-methylcyclopropyl)a-mino)methyl)cyclopro-pyl)methoxy)-8-fluoro-4-(1,4-oxazepan-4-yl)quinazolin-7-yl)-7-fluorobenzo[b]thiophene-3-carbonitrile], the concentration for half-maximal inhibition (IC50) in test [6] is 4980 nM; in test [1], 243 nM; in test [2], 846 nM; in test [3], 148 nM; in test [4] it was more than 11100 nM; in test [5], more than 11100 nM.
With `CCC1CCOCCN1c1nc(OC[C@@]23CCCN2C[C@H](F)C3)nc2c(F)c(-c3ccc(F)c4sc(N)c(C#N)c34)c(Cl)cc12` (stereo partly drawn) [compound 14, 2-amino-4-(6-chloro-4-(5-ethyl-1,4-oxazepan-4-yl)-8-fluoro-2-(((2R,7aS)-2-fluorotetrahydro-1H-pyrrolizin-7a(5H)-yl)methoxy)quinazo-lin-7-yl)-7-fluorobenzo[b]thio-phene-3-carbonitrile], the half-maximal inhibitory concentration (IC50) came to 154 nM in test [7], 6.32 nM in test [6] and 6.18 nM in test [3].
The matching figures for `N#Cc1c(N)sc2c(F)ccc(-c3c(Br)cc4c(N5CCCOCC5)nc(OC[C@@]56CCCN5C[C@H](F)C6)nc4c3F)c12` [compound 37, 2-amino-4-(6-bromo-8-fluoro-2-(((2R,7aS)-2-fluorotetrahydro-1H-pyrrolizin-7a(5H)-yl)methoxy)-4-(1,4-oxazepan-4-yl)quinazolin-7-yl)-7-fluorobenzo[b]thiophene-3-carbonitrile]: 48.9 nM, 8.27 nM and 3.54 nM.
Turning to `CC1(NC[C@@]2(COc3nc(N4CCCOCC4)c4cc(Cl)c(-c5ccc(F)c6sc(N)c(C#N)c56)c(F)c4n3)CC2(F)F)COC1` [compound 29, 2-amino-4-(6-chloro-2-(((R)-2,2-difluoro-1-(((3-methyloxetan-3-yl)amino)methyl)cyclo-propyl)methoxy)-8-fluoro-4-(1,4-oxazepan-4-yl)quinazolin-7-yl)-7-fluorobenzo[b]thiophene-3-carbonitrile], the IC50 was 2360 nM in test [6]; 390 nM in test [1]; 936 nM in test [2]; 273 nM in test [3]; more than 11100 nM in test [4]; more than 11100 nM in test [5].
